Data taken from PMC11882969 (Nature Communications, 2025).

Molecular target: CB1 (rCB1) (Rattus norvegicus, UniProt P20272)
Assay: Single-point radioligand displacement screen
Format: binding
Settings: for % 1H-CP-55,940 displacement (mean) from single point screen: 10 µM, 1 µM or 300 nM by cell colour (not visible); for rep1_displacement / rep2_displacement / rep3_displacement: Figure 1c source data; for rep1_displacement: replicate 1; for rep2_displacement: replicate 2; for rep3_displacement: replicate 3

Sequence of CB1 (rCB1) (P20272 whole entry): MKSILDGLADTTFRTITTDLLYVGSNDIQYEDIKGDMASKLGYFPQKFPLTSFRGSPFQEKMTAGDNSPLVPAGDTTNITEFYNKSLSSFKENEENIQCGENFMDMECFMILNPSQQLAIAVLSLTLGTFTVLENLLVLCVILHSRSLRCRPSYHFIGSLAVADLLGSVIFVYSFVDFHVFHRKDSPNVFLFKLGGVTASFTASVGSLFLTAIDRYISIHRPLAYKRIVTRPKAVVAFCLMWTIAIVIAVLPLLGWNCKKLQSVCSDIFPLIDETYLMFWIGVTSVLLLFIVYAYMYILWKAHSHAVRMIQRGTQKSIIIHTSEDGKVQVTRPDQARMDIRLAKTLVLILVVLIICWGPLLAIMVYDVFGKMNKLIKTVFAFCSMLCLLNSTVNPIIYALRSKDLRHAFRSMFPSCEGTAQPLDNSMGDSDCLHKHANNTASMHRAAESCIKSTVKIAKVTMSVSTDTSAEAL

SMILES | % 1H-CP-55,940 displacement (mean) from single point screen | rep1_displacement | rep2_displacement | rep3_displacement
Cc1nc(CC2CC2)oc1-c1nc(Cn2c(C(C)C)nc3ccccc32)no1 [7019_26] | 42.67% | – | – | –
CCCCc1nc(C)c(Cc2nc(Cc3ccc4c(c3)OCO4)no2)s1 [7019_27] | 45.01% | – | – | –
Cc1nn(CC2CC2)c(C)c1Cc1nc(Cc2ccc3c(c2)OCO3)no1 [7019_28] | 36.27% | – | – | –
COCc1nc(-c2nc(Cc3ccc4c(c3)OCO4)no2)c(-c2ccccc2)s1 [7019_29] | 24.10% | – | – | –
c1ccc(-c2nc(C3CC3)sc2-c2nnc(-c3ccc4c(c3)OCO4)o2)cc1 [7019_32] | 39.89% | – | – | –
CCOC(=O)c1nc(-c2nc(Cc3cc4c(cc3Br)OCO4)no2)cs1 [7019_300] | 3.83% | – | – | –
CC(C)(C)c1c(C(=O)OCC2CSc3ccccc3O2)cnn1Cc1ccccc1 (stereo not drawn) [7800_22] | 73.02% | – | – | –
Cc1c(C(=O)OCC2CSc3ccccc3O2)cnn1Cc1ccc2ccccc2c1 (stereo not drawn) [7800_24] | 50.03% | – | – | –
Cc1c(C(=O)OCC2CSc3ccccc3O2)cnn1Cc1cccc(C(F)(F)F)c1 (stereo not drawn) [7800_25] | 58.49% | – | – | –
Cc1c(C(=O)OCC2CSc3ccccc3S2)cnn1Cc1ccccc1 (stereo not drawn) [7800_26] | 69.84% | – | – | –
O=C(OCC1CSc2ccccc2O1)c1cnn(Cc2ccccc2)c1Br (stereo not drawn) [7800_27] | 70.31% | – | – | –
Cc1nn(Cc2ccccc2Cl)c(C)c1C(=O)OCC1CSc2ccccc2O1 (stereo not drawn) [7800_28] | 55.46% | – | – | –
CCCCCCC1(c2cc(O)c3c(c2)OC(C)(C)[C@@H]2CC[C@@H](O)C[C@@H]32)CCC1 [AM2389, reference compound] | – | 99.9 | 99.9 | 99.8
CCc1nc(C(=O)NC(c2ccccc2)c2cccnc2)nn1-c1ccccc1Cl (stereo not drawn) [compound 00051] | 16.02% | 20.4 | 19.7 | 7.9
N#CCCn1ncc(C(=O)OCC2CSc3ccccc3O2)c1-c1ccccc1 (stereo not drawn) [compound 0372] | 41.18% | – | – | –
Cc1nc(C2CC2)oc1-c1nc(Cc2ccc3c(c2)OCO3)no1 [compound 0682] | -7.41% | – | – | –
N#Cc1cccc(-n2ccc(C(=O)OCC3CSc4ccccc4O3)n2)c1 (stereo not drawn) [compound 2666] | 30.46% | – | – | –
Cc1c(C(=O)OCC2CSc3ccccc3O2)cnn1-c1ccccc1 (stereo not drawn) [compound 3189] | 46.85% | – | – | –
COC(=O)C(NC(=O)c1cc(C)n(-c2ccccc2)n1)c1cccnc1 (stereo not drawn) [compound 03453] | -5.45% | – | – | –
O=C(OCc1nc2ccccc2o1)c1cnn(Cc2ccccc2Cl)c1 [compound 3652] | 32.00% | – | – | –

SMILES | % 1H-CP-55,940 displacement (mean) from single point screen | rep1_displacement | rep2_displacement | rep3_displacement
Cc1c(C(=O)N(C)CC2COc3ccccc3O2)cnn1-c1ccccc1 (stereo not drawn) [compound 4148] | 11.41% | – | – | –
Cc1c(C(=O)OCC2CN(c3ccccc3)C(=O)O2)cnn1Cc1ccccc1 (stereo not drawn) [compound 5081] | 31.79% | – | – | –
O=C(NCC1CSc2ccccc2O1)c1ncc(Cc2ccccc2)o1 (stereo not drawn) [compound 5752] | 24.02% | – | – | –
Cc1nc(CC2CC2)oc1-c1nc(-c2ccc3c(c2)OCO3)no1 [compound 5962] | 10.45% | – | – | –
Cc1c(C(=O)NCC2CSc3ccccc3O2)cnn1-c1ccc(C(F)(F)F)cc1 (stereo not drawn) [compound 6445] | 46.11% | – | – | –
COC(=O)C(NC(=O)c1ccc(-c2ccccc2F)o1)c1ccsc1 (stereo not drawn) [compound 07099] | 3.88% | – | – | –
Cc1c(C(=O)OCc2nc3ccccc3o2)cnn1Cc1ccccc1 [compound 8354] | 59.03% | – | – | –
O=C1C(=O)N(C23CC4CC(CC(C4)C2)C3)C(=O)N1CC1CCC(C(F)(F)F)CC1 (stereo not drawn) [compound 8441] | 47.91% | 51.8 | 42.6 | 49.3
COc1ccc(Cc2noc(-c3oc(CC4CC4)nc3C)n2)cc1 [compound 8861] | 15.76% | – | – | –
Fc1ccc(C(F)(F)c2noc(-c3cnnn3-c3cccc(F)c3)n2)cc1 [compound 9217] | 46.71% | 49.7 | 46.4 | 44.1
COc1ccc(OC(C)(C)c2nnc(-c3nn(C)c(=O)c4ccccc34)o2)cc1 [compound 9753] | 51.55% | – | – | –
Cc1nc(CC2CC2)oc1-c1nc(Cc2ccc(OCc3ccccn3)cc2)no1 [compound 9841] | 19.42% | – | – | –
CCOC(=O)CCC(OC(=O)c1nc(C)n(-c2ccccc2)n1)c1ccccc1 (stereo not drawn) [compound 11070] | 34.00% | 33.8 | 28.7 | 39.6
COC(=O)C(NC(=O)c1cc(C)n(-c2cccc(F)c2)n1)c1ccc2c(c1)CCO2 (stereo not drawn) [compound 12208] | -5.83% | – | – | –
COc1cc(OC)cc(-c2nc([C@H](OC)c3ccc(Br)cc3)no2)c1 [compound 13596] | 47.56% | 46.1 | 49 | –
COC(=O)C(NC(=O)c1cc(C)n(-c2cccc(Cl)c2)n1)c1ccc(C(F)(F)F)cc1 (stereo not drawn) [compound 14083] | 24.29% | – | – | –
O=C1CN(C(=O)c2ccc(Cl)c3cccnc23)CN1Cc1ccccc1 [compound 14861] | 15.10% | 15 | 15.3 | 15
Cc1cc(C(=O)NC(CCO)Cc2ccccc2)nn1-c1ccc(F)cc1 (stereo not drawn) [compound 15032] | -0.53% | – | – | –
Cc1cc(C(=O)NC(c2ccc(Cl)cc2)c2ccn(C)n2)nn1-c1cccc(F)c1 (stereo not drawn) [compound 17429] | 23.12% | – | – | –
Cn1cc2c(n1)CCCC2c1nc(C2(c3cccc(C(F)(F)F)c3)CC2)no1 (stereo not drawn) [compound 18525] | 41.38% | 39.7 | 46.2 | 38.2

SMILES | % 1H-CP-55,940 displacement (mean) from single point screen | rep1_displacement | rep2_displacement | rep3_displacement
COC(=O)C(NC(=O)c1coc(C2CCOCC2)n1)c1cccs1 (stereo not drawn) [compound 19213] | 1.83% | – | – | –
Cc1c(C(=O)NCC2CSc3ccccc3O2)nnn1Cc1ccc(F)cc1 (stereo not drawn) [compound 22139] | 13.03% | – | – | –
COC(=O)c1nc(N(C)CCOc2ccc(Br)cc2)sc1C [compound 22875] | 27.03% | 25.7 | 29.1 | 26.3
O=C(OCC1CSc2ccccc2O1)c1cn(Cc2cccc(F)c2)nn1 (stereo not drawn) [compound 23346] | 25.27% | – | – | –
Fc1ccc(-n2ncc3c(SCc4cc(-c5ccco5)on4)ncnc32)cc1 [compound 23397] | 17.08% | 23 | 15.9 | 12.4
COC(=O)c1cc(C(=O)N2CCc3ccc(Cl)cc3C2)cc([N+](=O)[O-])c1 [compound 25719] | 24.96% | 30.1 | 24.6 | 20.2
Cc1ccc(OCCC(=O)N2CC3CCCN3c3ccccc32)c(C)c1 (stereo not drawn) [compound 26701] | 35.34% | 39 | 34.5 | 32.6
CC1C(C(F)(F)F)CCN1C(=O)c1csc(N(C)c2ccccc2)n1 (stereo not drawn) [compound 27005] | 32.20% | 31.7 | 30.7 | 34.2
O=C(OCC1CSc2ccccc2O1)c1ccc(Cn2cccc2)cc1 (stereo not drawn) [compound 30177] | 18.40% | – | – | –
Cn1nc(-c2nnc(C(C)(C)Oc3ccc(F)cc3)o2)c2ccccc2c1=O [compound 31486] | 32.26% | – | – | –
Cc1c(C(=O)OCC2COc3ccccc3O2)cnn1Cc1ccccc1 (stereo not drawn) [compound 32445] | 35.36% | – | – | –
N#CCCn1ncc(C(=O)N2CCC(F)(c3cc(F)cc(F)c3)C2)c1-c1ccccc1 (stereo not drawn) [compound 34734] | 15.43% | 21.6 | 10.3 | 14.4
CC(Oc1ccccc1)c1noc(-c2ccc(=O)n(-c3ccc(F)cc3)n2)n1 (stereo not drawn) [compound 34765] | 18.38% | 25 | 13.3 | 16.8
N#Cc1cccc(OCc2ccoc2C(=O)OCC2CSc3ccccc3O2)c1 (stereo not drawn) [compound 35424] | 60.22% | – | – | –
Cc1ccn2cc(C(=O)N3CCc4c(F)cc(Br)cc4C3)nc2c1 [compound 35971] | 13.78% | 9.7 | 11.6 | 20
CC(C)n1nc(-c2nnc(C(C)(C)Oc3ccc(Cl)cc3)o2)c2ccccc2c1=O [compound 41360] | 41.24% | – | – | –
O=C(c1ccccc1CS(=O)(=O)c1ccccc1)N1CCC(c2cccc(F)c2)C1 (stereo not drawn) [compound 41949] | 33.74% | 30 | 36.7 | 34.6
O=C1CN(C(=O)c2cc3cc(Br)ccc3o2)CN1Cc1ccccc1 [compound 46675] | 22.64% | 22.6 | – | –
